Values belong to the compound of their own block, whether it stands above or below them.
Tests used:
IκB-kinase = target: T1, IκB-kinase (Homo sapiens, UniProt O14920+O15111); assay: IκB-Kinase ELISA; format: biochemical; conditions: kinase complex from HeLa S3 cell extract, activated with MEKK1Δ
T1 construct: endogenous in cells; host or cells: HeLa S3 cell extract S100; ammonium sulfate cut and Superose-6 gel filtration (670 kDa fractions)

[1] = system: Kaolin/carrageenan-induced knee joint inflammation; assay: Kaolin/carrageenan-induced knee joint inflammation in the rat: reaction of spinal neurons during pressure stimulation of the knee; format: in vivo
Excerpt: • Zymosan-induced paw inflammation in the rat; • Parameter: paw withdrawal time or paw withdrawal threshold during thermal or mechanical stimulation of the hind paw. 2nd Model: • Kaolin/carrageenan-induced knee joint inflammation in the rat; • Parameter: reaction of spinal neurons during pressure stimulation of the knee. Model 1
Experimental implementation: In rats which were under sodium thiopental anesthesia, the spinal canal was opened and spinal medullary neurons which processed the “pain impulses” from the knee-joint were identified. Following identification, a long-term recording, in which the activity of the nerve cell was recorded before and during the development of an acute inflammation in the knee-joint, was carried out. For this, the responses to non-noxious and noxious stimulation at the knee-joint were measured in a control period before inducing the inflammation and for several hours after inducing the inflammation.
The acute inflammation was induced by the intraarticular injection of a suspension (about 150 μl) of kaolin and carrageenan. In controlled experiments, only the vehicle was applied to the spinal medullary surface in order to represent the development of the hyperexcitability under control conditions. As a rule, this development of hyperexcitability took place within 2 to 4 hours and was expressed in a marked increase in the responses to non-noxious and noxious stimulation of the knee-joint (Tab. 3). […] The responses of the cell to non-noxious and noxious stimulation were then subsequently monitored as in the control experiments.

[2] = system: Zymosan-induced paw inflammation; assay: Zymosan-induced paw inflammation in the mouse: paw withdrawal time during thermal stimulation of the hind paw; format: in vivo; conditions: thermal hyperalgesia AUC, seven days; 200 mg/kg twice daily
Procedure: • Zymosan-induced paw inflammation in the mouse; • Parameter: paw withdrawal time during thermal stimulation of the hind paw. Experimental implementation: In short-term anesthesia using isoflurane, 25 μl of a suspension containing 50 mg of zymosan/ml were injected into the right hind paw of the experimental animal. The development of a hyperalgesia was then determined quantitatively as follows: Determining the Paw Withdrawal Time During Thermal Stimulation (Hargreave's Test; See Above). The experimental animal was placed in a transparent plastic chamber having a glass floor. As soon as the experimental animal was no longer moving, following the reconnaissance phase (about 5 min), an infrared light source was positioned directly below the hind paw to be stimulated and switched on. The lamp emitted focused infrared light of increasing intensity such that the skin temperature of the hind paw increased almost linearly. As soon as the animal withdrew the paw, the lamp switched itself off. The temperature of the paw at the time it is withdrawn has just become unpleasant for the animal; this is referred to as the thermal pain threshold. Shortly before the zymosan injection, and for from 7 to 14 days after the injection, the thermal pain threshold was determined once daily on the right hind paw and left hind paw. Subsequently, the integral of the area which was formed from the curves for the paw withdrawal times of the inflamed paw and the noninflamed paw (AUC, area between the curves, see tables 5 and 6) was determined as a measure of the hyperalgesia. The larger this value is, the more pronounced is the hyperalgesia, and the smaller the value is in animals which are being given the substance, the greater is the success of the therapy. […] A very high dose of paracetamol was likewise administered twice daily to another group of animals which was taken through the experiment in parallel. […] The scheme for zymosan injection and dosing was identical to that in the previously described study. The only difference was that this additional study ran for 14 days.

[3] = system: Zymosan-induced paw inflammation; assay: Zymosan-induced paw inflammation in the mouse: spontaneous running performance in a running wheel; format: in vivo, C57/B6 mice
Procedure: 4th Model: • Zymosan-induced paw inflammation in the mouse; • Parameter: spontaneous running performance in a running wheel. In the cage in which it is kept, the experimental animal has access to a running wheel, the revolutions of which are recorded electronically. During the night hours, the C57/B6 mice use the running wheel voluntarily and, after a one-week phase of acclimatization, cover on average 4 100 meters/night. After zymosan has been injected, the distance run each night is reduced. This reduction in running performance is a valid parameter for a restriction in function which is due to inflammation pain. Experimental implementation: After an acclimatization phase of one week, the distance run/24 hours was measured in order to determine the base line. 25 μl of a suspension containing 50 mg of zymosan/ml were then injected into the right hind paw of the experimental animal during short-term anesthesia using isoflurane. The distance run/24 hours was then determined during the following seven days. In the analysis, the area under the curve for the values for the distance run was determined (AUC, tab. 7): the lower the AUC, the lower was the running performance during the week following injection of the zymosan. […] The substance was administered for the first time on day 1 after injection of the zymosan.

T1 sequence (O14920 whole entry): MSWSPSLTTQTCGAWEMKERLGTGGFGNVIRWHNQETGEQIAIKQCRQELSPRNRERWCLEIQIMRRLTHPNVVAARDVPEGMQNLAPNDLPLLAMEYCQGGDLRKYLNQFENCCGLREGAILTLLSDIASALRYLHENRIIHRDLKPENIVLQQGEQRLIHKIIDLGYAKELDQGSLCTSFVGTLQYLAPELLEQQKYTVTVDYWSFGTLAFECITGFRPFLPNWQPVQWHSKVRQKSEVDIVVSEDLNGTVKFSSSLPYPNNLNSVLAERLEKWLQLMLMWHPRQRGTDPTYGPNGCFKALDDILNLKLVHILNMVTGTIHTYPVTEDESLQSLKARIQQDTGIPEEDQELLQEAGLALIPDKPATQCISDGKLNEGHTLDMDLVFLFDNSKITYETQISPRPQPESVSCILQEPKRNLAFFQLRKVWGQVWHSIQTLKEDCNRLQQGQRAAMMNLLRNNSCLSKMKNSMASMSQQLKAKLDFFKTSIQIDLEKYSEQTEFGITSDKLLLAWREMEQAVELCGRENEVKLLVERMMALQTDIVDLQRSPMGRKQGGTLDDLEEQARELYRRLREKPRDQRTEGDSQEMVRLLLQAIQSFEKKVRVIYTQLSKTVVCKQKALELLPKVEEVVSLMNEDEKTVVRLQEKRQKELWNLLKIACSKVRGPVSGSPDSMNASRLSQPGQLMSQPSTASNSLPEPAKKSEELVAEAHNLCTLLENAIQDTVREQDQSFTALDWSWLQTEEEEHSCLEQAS
T1 sequence (O15111 whole entry): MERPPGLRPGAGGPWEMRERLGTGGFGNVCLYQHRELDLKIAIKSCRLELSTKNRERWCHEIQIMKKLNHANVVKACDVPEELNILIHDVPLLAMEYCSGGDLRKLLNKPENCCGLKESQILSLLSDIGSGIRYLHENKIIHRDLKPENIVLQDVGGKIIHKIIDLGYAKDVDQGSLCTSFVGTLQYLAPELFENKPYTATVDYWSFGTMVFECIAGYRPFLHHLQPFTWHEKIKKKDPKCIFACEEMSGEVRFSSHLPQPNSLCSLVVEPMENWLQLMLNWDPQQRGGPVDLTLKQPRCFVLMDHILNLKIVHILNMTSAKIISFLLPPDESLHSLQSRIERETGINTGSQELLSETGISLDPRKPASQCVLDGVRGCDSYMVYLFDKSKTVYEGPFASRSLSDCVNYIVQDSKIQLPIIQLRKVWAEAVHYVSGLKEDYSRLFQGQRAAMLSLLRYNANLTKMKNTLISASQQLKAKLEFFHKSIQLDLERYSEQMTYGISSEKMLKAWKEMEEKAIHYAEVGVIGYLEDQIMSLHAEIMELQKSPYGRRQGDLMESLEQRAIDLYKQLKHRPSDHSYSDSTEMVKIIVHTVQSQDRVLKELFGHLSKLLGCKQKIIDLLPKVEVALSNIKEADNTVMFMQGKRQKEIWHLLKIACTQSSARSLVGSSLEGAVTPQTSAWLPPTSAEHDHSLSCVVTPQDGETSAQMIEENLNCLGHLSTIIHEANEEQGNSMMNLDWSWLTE
T1 sequence (Q9Y6K9 whole entry partner): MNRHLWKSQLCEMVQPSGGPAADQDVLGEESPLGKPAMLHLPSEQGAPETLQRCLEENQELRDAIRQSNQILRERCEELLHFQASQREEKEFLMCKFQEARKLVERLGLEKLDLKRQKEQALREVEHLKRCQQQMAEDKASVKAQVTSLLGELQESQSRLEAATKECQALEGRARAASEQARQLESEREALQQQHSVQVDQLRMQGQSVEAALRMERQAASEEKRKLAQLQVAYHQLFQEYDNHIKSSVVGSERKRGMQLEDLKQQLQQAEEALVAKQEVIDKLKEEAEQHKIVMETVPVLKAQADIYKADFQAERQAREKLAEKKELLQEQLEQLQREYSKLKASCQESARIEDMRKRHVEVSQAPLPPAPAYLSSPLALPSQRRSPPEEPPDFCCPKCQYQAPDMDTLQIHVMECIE

IC50 (IκB-kinase): 45 nM
Compound: CNc1nccc(-c2nc3cc(C(=O)N[C@@H](CN(c4ccccc4)c4ccccc4)C(N)=O)ccc3[nH]2)n1 [Compound 22, N—((S)-1-carbamoyl-2-diphenylaminoethyl)-2-(2-methylaminopyrimidin-4-yl)-1H-benzimidazole-5-carboxamide]
Neuronal responses before and during knee-joint inflammation (imp/15 s) ([1]; Experiment 1, Non-noxious stimulation at the knee-joint, 30-60 min after K/C injection): −34.1 imp/15 s
Neuronal responses before and during knee-joint inflammation (imp/15 s) ([1]; Experiment 1, Non-noxious stimulation at the knee-joint, 60-120 min after K/C injection): −37.2 imp/15 s
Neuronal responses before and during knee-joint inflammation (imp/15 s) ([1]; Experiment 1, Non-noxious stimulation at the knee-joint, 120-180 min after K/C injection): −32.1 imp/15 s
Neuronal responses before and during knee-joint inflammation (imp/15 s) ([1]; Experiment 1, Non-noxious stimulation at the knee-joint, Baseline): 0 imp/15 s
Neuronal responses before and during knee-joint inflammation (imp/15 s) ([1]; Experiment 1, Noxious stimulation at the knee-joint, 30-60 min after K/C injection): −109.1 imp/15 s
Neuronal responses before and during knee-joint inflammation (imp/15 s) ([1]; Experiment 1, Noxious stimulation at the knee-joint, 60-120 min after K/C injection): −101.1 imp/15 s
Neuronal responses before and during knee-joint inflammation (imp/15 s) ([1]; Experiment 1, Noxious stimulation at the knee-joint, 120-180 min after K/C injection): −37.8 imp/15 s
Neuronal responses before and during knee-joint inflammation (imp/15 s) ([1]; Experiment 1, Noxious stimulation at the knee-joint, Baseline): 0 imp/15 s
Neuronal responses before and during knee-joint inflammation (imp/15 s) ([1]; Experiment 2, Non-noxious stimulation at the knee-joint, 30-60 min after K/C injection): −30.6 imp/15 s
Neuronal responses before and during knee-joint inflammation (imp/15 s) ([1]; Experiment 2, Non-noxious stimulation at the knee-joint, 120-180 min after K/C injection): 50.3 imp/15 s
Neuronal responses before and during knee-joint inflammation (imp/15 s) ([1]; Experiment 2, Non-noxious stimulation at the knee-joint, 180-240 min after K/C injection): 68.7 imp/15 s
Neuronal responses before and during knee-joint inflammation (imp/15 s) ([1]; Experiment 2, Non-noxious stimulation at the knee-joint, Baseline): 0 imp/15 s
Neuronal responses before and during knee-joint inflammation (imp/15 s) ([1]; Experiment 2, Noxious stimulation at the knee-joint, 30-60 min after K/C injection): −9.2 imp/15 s
Neuronal responses before and during knee-joint inflammation (imp/15 s) ([1]; Experiment 2, Noxious stimulation at the knee-joint, 120-180 min after K/C injection): 60 imp/15 s
Neuronal responses before and during knee-joint inflammation (imp/15 s) ([1]; Experiment 2, Noxious stimulation at the knee-joint, 180-240 min after K/C injection): 96.7 imp/15 s
Neuronal responses before and during knee-joint inflammation (imp/15 s) ([1]; Experiment 2, Noxious stimulation at the knee-joint, Baseline): 0 imp/15 s
effect in model 2 ([1]; rat): good effect

Compound: CC(=O)Nc1ccc(O)cc1 [Paracetamol, reference compound]
Statistical difference as compared with the vehicle [2]: yes
distance run as compared with the vehicle group ([3]; mouse, 7 days, extremely high dose): no improvement
Statistical difference as compared with the vehicle ([3]; running wheel AUC, seven days, 200 mg/kg twice daily): no

Reference: US8809358B2, “Use of IκB-kinase inhibitors in pain therapy” (Sanofi-Aventis Deutschland GmbH, priority 2002, dated 2014)
